SMILES strings stand for the structures. Active and inactive are the calls of the source. No cut-off for these calls is given here.

In test [1] the test system is PBMC. Put plainly: Stimulation of immune response in human PBMC assessed as induction of RANTES production at 150 ug/ml after 24 hrs. Type of test: functional, cell-based.
In test [2] the test system is PBMC. Briefly: Stimulation of immune response in human PBMC assessed as induction of IL1-beta production at 150 ug/ml after 24 hrs. Type of test: functional, cell-based.
For test [3], the species on record is Homo sapiens. Put plainly: Stimulation of immune response in human pDC assessed as induction of MIP1beta production at 150 ug/ml after 24 hrs. It counts as functional.
The test system of test [4] is PBMC. Briefly: Stimulation of immune response in human PBMC assessed as induction of IFNalpha production at 150 ug/ml after 24 hrs. It counts as functional, cell-based.
The subject of test [5] is PBMC. Put plainly: Stimulation of immune response in human PBMC assessed as induction of MIP1beta production at 150 ug/ml after 24 hrs. Type of test: functional, cell-based.
A further test has as its system Mus musculus. Put plainly: Stimulation of immune response in C57BL/6 mouse assessed as induction of serum IL12 production at 50 mg/kg, sc after 2 hrs by luminex multiplex assay. Also on record: dose 50 mg/kg. It counts as functional, organism-based.
Test [6] deals with PBMC. Briefly: Stimulation of immune response in human PBMC assessed as induction of MCP1 production at 150 ug/ml after 24 hrs. It counts as functional, cell-based.
Test [7] is filed under the species Homo sapiens. Put plainly: Stimulation of immune response in human pDC assessed as induction of IFNalpha production at 150 ug/ml after 24 hrs. Type of test: functional.
Test [8] is filed under the species Homo sapiens. Briefly: Stimulation of immune response in human pDC assessed as induction of IL12 production at 150 ug/ml after 24 hrs. It counts as functional.
In test [9] the target is T1, Toll-like receptor 7 (Homo sapiens) (UniProt Q9NYK1).
T1 sequence (whole entry): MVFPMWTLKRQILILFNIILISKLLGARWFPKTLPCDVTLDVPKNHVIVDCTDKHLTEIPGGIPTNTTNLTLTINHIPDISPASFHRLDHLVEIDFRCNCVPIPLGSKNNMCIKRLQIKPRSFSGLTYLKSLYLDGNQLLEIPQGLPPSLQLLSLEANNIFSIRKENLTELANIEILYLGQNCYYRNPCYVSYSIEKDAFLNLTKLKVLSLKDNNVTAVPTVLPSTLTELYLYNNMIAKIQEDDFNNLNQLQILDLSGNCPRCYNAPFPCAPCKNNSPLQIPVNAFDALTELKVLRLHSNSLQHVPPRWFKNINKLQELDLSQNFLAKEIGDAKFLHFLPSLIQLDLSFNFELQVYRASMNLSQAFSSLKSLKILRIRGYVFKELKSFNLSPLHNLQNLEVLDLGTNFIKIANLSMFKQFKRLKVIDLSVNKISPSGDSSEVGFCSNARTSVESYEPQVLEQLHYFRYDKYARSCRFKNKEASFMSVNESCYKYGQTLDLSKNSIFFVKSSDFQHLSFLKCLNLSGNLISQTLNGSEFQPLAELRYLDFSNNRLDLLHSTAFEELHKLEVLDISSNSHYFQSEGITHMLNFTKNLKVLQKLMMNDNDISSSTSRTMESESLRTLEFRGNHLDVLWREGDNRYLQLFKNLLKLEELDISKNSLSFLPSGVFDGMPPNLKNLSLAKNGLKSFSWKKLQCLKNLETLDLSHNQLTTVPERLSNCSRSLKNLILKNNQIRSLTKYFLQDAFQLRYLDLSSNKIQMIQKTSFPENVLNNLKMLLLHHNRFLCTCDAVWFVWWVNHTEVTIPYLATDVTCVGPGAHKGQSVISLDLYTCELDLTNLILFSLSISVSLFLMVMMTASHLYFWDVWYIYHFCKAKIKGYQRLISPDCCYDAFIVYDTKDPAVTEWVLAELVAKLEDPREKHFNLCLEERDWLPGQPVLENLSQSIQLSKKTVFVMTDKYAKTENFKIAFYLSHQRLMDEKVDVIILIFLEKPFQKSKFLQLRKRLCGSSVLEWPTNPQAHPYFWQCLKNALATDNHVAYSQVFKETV
Briefly: Agonist activity at human TLR7 expressed in HEK293XL cells assessed as NF-kappaB activation at 300 ug/ml after 18 hrs. It counts as functional, cell-based.

Test [10] deals with PBMC. Put plainly: Stimulation of immune response in human PBMC assessed as induction of IFN-gamma production at 150 ug/ml after 24 hrs. It counts as functional, cell-based.
Test [11] deals with PBMC. Put plainly: Stimulation of immune response in human PBMC assessed as induction of TNFalpha production at 150 ug/ml after 24 hrs. Type of test: functional, cell-based.
The species entered for test [12] is Homo sapiens. Put plainly: Stimulation of immune response in human pDC assessed as induction of TNFalpha production at 150 ug/ml after 24 hrs. It counts as functional.
In test [13] the target is T2, Toll-like receptor 8 (Homo sapiens) (UniProt Q9NR97).
T2 sequence (whole entry): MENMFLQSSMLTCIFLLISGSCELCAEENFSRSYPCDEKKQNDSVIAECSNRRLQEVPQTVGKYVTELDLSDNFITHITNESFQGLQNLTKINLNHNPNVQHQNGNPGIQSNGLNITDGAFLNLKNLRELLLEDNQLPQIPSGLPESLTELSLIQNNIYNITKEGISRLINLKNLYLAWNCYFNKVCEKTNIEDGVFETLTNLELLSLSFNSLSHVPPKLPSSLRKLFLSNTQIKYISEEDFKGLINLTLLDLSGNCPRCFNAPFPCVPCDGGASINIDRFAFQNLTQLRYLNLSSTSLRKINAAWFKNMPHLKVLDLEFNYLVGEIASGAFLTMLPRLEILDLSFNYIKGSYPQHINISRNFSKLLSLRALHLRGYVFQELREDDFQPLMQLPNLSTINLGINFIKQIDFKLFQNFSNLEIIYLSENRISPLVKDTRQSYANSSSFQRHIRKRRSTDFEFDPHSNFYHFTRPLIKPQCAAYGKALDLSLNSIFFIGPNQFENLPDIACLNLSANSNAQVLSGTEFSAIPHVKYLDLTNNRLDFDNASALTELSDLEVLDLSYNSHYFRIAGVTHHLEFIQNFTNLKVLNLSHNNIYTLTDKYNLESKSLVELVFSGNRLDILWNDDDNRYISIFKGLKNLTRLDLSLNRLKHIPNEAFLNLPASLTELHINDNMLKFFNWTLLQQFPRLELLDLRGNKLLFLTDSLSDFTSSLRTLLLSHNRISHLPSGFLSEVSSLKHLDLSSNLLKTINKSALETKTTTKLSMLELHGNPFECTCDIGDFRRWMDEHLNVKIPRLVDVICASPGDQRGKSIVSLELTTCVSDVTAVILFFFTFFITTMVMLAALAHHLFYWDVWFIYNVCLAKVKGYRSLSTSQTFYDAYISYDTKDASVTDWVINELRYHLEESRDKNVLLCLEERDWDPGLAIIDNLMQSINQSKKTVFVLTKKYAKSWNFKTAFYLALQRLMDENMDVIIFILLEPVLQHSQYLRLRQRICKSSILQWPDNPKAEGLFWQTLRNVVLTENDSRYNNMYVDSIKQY
Briefly: Agonist activity at human TLR8 expressed in HEK293XL cells assessed as NF-kappaB activation after 18 hrs. It counts as functional, cell-based.

The subject of test [14] is PBMC. Briefly: Stimulation of immune response in human PBMC assessed as induction of IL12 production at 150 ug/ml after 24 hrs. Type of test: functional, cell-based.
For test [15], the species on record is Homo sapiens. Briefly: Stimulation of immune response in human pDC assessed as induction of IFN-gamma production at 150 ug/ml after 24 hrs. Type of test: functional.
The test system of test [16] is PBMC. Put plainly: Stimulation of immune response in human PBMC assessed as induction of MIP1alpha production at 150 ug/ml after 24 hrs. It counts as functional, cell-based.
In test [17] the test system is PBMC. Put plainly: Stimulation of immune response in human PBMC assessed as induction of IL8 production at 150 ug/ml after 24 hrs. It counts as functional, cell-based.
Test [18] concerns PBMC. Put plainly: Stimulation of immune response in human PBMC assessed as induction of IL2R level at 150 ug/ml after 24 hrs. Type of test: functional, cell-based.
The species named for test [19] is Homo sapiens. Put plainly: Stimulation of immune response in human pDC assessed as induction of MIP1alpha production at 150 ug/ml after 24 hrs. It counts as functional.
Test [20] deals with PBMC. Briefly: Stimulation of immune response in human PBMC assessed as induction of IL10 production at 150 ug/ml after 24 hrs. Type of test: functional, cell-based.

On to `Nc1ccn([C@@H]2O[C@H](COP(=O)(S)O[C@H]3[C@@H](O)[C@H](n4cnc5c(N)ncnc54)O[C@@H]3COP(=O)(S)O[C@H]3[C@@H](O)[C@H](n4cnc5c(=O)[nH]c(N)nc54)O[C@@H]3COP(=O)(S)O[C@H]3[C@@H](O)[C@H](n4ccc(=O)[nH]c4=O)O[C@@H]3COP(=O)(S)O[C@H]3[C@@H](O)[C@H](n4cnc5c(=O)[nH]c(N)nc54)O[C@@H]3COP(=O)(S)O[C@H]3[C@@H](O)[C@H](n4ccc(=O)[nH]c4=O)O[C@@H]3COP(=O)(S)O[C@H]3[C@@H](O)[C@H](n4cnc5c(=O)[nH]c(N)nc54)O[C@@H]3COP(=O)(S)O[C@H]3[C@@H](O)[C@H](n4ccc(=O)[nH]c4=O)O[C@@H]3COP(=O)(S)O[C@H]3[C@@H](O)[C@H](n4ccc(=O)[nH]c4=O)O[C@@H]3COP(=O)(S)O[C@H]3[C@@H](O)[C@H](n4cnc5c(=O)[nH]c(N)nc54)O[C@@H]3COP(=O)(S)O[C@H]3[C@@H](O)[C@H](n4ccc(=O)[nH]c4=O)O[C@H]3CO)[C@@H](OP(=O)(S)OCC(O)COP(=O)(S)O[C@H]3[C@@H](O)[C@H](n4ccc(N)nc4=O)O[C@@H]3COP(=O)(S)O[C@H]3[C@@H](O)[C@H](n4cnc5c(N)ncnc54)O[C@@H]3COP(=O)(S)O[C@H]3[C@@H](O)[C@H](n4cnc5c(=O)[nH]c(N)nc54)O[C@@H]3COP(=O)(S)O[C@H]3[C@@H](O)[C@H](n4ccc(=O)[nH]c4=O)O[C@@H]3COP(=O)(S)O[C@H]3[C@@H](O)[C@H](n4cnc5c(=O)[nH]c(N)nc54)O[C@@H]3COP(=O)(S)O[C@H]3[C@@H](O)[C@H](n4ccc(=O)[nH]c4=O)O[C@@H]3COP(=O)(S)O[C@H]3[C@@H](O)[C@H](n4cnc5c(=O)[nH]c(N)nc54)O[C@@H]3COP(=O)(S)O[C@H]3[C@@H](O)[C@H](n4ccc(=O)[nH]c4=O)O[C@@H]3COP(=O)(S)O[C@H]3[C@@H](O)[C@H](n4ccc(=O)[nH]c4=O)O[C@@H]3COP(=O)(S)O[C@H]3[C@@H](O)[C@H](n4cnc5c(=O)[nH]c(N)nc54)O[C@@H]3COP(=O)(S)O[C@H]3[C@@H](O)[C@H](n4ccc(=O)[nH]c4=O)O[C@@H]3CO)[C@H]2O)c(=O)n1` (stereo in doubt; 6), for which the result with PBMC [1], in the test on PBMC [2], in the test filed under Homo sapiens [3], in the test on PBMC [4], in the test with PBMC [5] and in the test with PBMC [6] was Active. In addition, the result in the test filed under Homo sapiens [8], in the test on PBMC [10], in the test with PBMC [11], in the test listed under Homo sapiens [12], in the test on PBMC [14] and in the test listed under Homo sapiens [15] was Active. For the same molecule, the outcome in the test on PBMC [16], in the test with PBMC [17], in the test on PBMC [18], in the test filed under Homo sapiens [19] and in the test with PBMC [20] was Active. In addition, the result (with Mus musculus; in the test filed under Homo sapiens [7]; in test [9]) was inactive. Further, in test [13], the Activity result is “Dose-dependent effect”.

For the origin of these results see ChEMBL document CHEMBL1151840, “Synthetic oligoribonucleotides containing arabinonucleotides act as agonists of TLR7 and 8” (Bioorg Med Chem Lett, 2009).
